Values of other authors, collected in PMC4956526 (Bioconjugate chemistry, 2016).

Settings: ref 40 (Lau et al.)

Row | Substance | subcutaneous bioavailability [%]
1 | liraglutide | 66
2 | semaglutide | 94
